# Measured values: patent US20220151954A1, “TREATMENT OF SEBACEOUS GLAND DISORDERS” (priority 2019, published 2022)
# What was measured:
# human sebocytes = conditions: cited from earlier work
# [1] = system: IL-1β secretion by U937 cells; assay: Inhibition of secretion of IL-1β by lipopolysaccharide-stimulated U937 cells (ELISA); type: cell-based
# Experimental: (§1) U937 cells, were thawed and treated according to the manufacturer's instructions. The cultures were incubated for recovery at 37° C. with 5% CO2 until 70-80% confluency was reached (visual estimation). Then, approx. 0.3×10^6 ¢/mL (determined by counting) were seeded in 96 well plates containing 200 μL/well of complete growth medium. The cells were incubated at 37° C. with 5% CO2 until 60% confluency was reached (visual estimation, typically—after 48 hr).
# (§2) After the cells had reached the required confluency, the medium was replaced with pre-prepared growth medium supplemented with 1 μg/mL of lipopolysaccharides, and the test components were added, at a final volume of 200 μL/well. The following control groups were also added: Naïve cells, vehicle control, stimulation control, stimulation vehicle control. A proper blank control was subtracted from the measurements.
# (§3) The cells were incubated for 24 hr. at 37° C. with 5% CO2. After the incubation, the conditioned medium of the different treatment groups was collected under standardized conditions and centrifuged at 250×g for 5 min to remove particulates. Clear supernatants were frozen at −70° C. until cytokines analyses. The secretion levels of IL-1β and TNFα (a major inflammatory marker) were quantified by commercial ELISA.
# [2] = system: TNFα secretion by U937 cells; assay: Inhibition of secretion of TNFα by lipopolysaccharide-stimulated U937 cells (ELISA); type: cell-based
# Experimental: as §1, §2, §3
# P. acnes = assay: Propionibacterium acnes growth inhibition (absorbance at 600 nm); type: cell-based
# Experimental: A streak plate isolation technique was performed to isolate a single homogenous colony of P. acnes. A pinch of one colony was inoculated from agar plate into U-shape falcon tube containing 4 ml of broth media. Cultures were incubated at 37° C. in reduced oxygen-conditions for 72 hours. The cultures were then diluted and grown to mid-log phase (O.D. 0.5; 600 nm) for 3 hr.
# The bacteria were incubated with the test components (cannabidiol and/or extract of C. asiatica) at different concentrations in triplicate at a final volume of 200 μl in an N-pre-flushed U shape 96-well plates for 3 hr. An additional blank control group was included (media w/o bacteria). Also, a negative (bacteria without test samples) control groups was included in the assay. In addition, combinations of the these components were tested (see Table 2).
# The absorbance was recorded at 600 nm. The absorbance of the blank control was subtracted from all measurements. The change in bacterial number in response to increasing test sample concentrations was plotted.
# [3] = system: PGE2 secretion by RAW 264.7 cells; assay: Secretion of PGE2 by LPS-stimulated RAW 264.7 cells; type: cell-based
# Experimental: RAW 264.7 cells (approx. 2.5×10^5 ¢/ml, by counting) were seeded in 96 well plates containing 170 μl/well of complete growth medium. The cells were incubated at 37° C. with 5% CO2 for 24 hr. […] In addition, naïve cells, vehicle-treated cells, Stimulated Control, and Stimulated Vehicle Control served as negative controls. Dexamethasone served as a positive control for anti-inflammatory assay. A Blank control group was included in the assay.
# The spent media from all test groups were collected under standardized conditions and centrifuged at 250 g for 5 min to remove particulates. Clear supernatants were frozen at −70° C. until analysis. The secretion levels of PGE2 (an important inflammatory marker) were determined.
# [4] = cultured human sebocytes and human skin organ culture
# [5] = Homo sapiens, U-937, each component present at 10 μg/ml, 1 μg/mL lipopolysaccharides, 24 hr
smiles,measurement,setting,value
"C=C(C)[C@@H]1CCC(C)=C[C@H]1c1c(O)cc(CCCCC)cc1O [Cannabidiol, cannabidiol]","effect on lipogenic actions of arachidonic acid, linoleic acid + testosterone (in words)",human sebocytes; [4],inhibited the lipogenic actions
same,effect on sebocyte proliferation (in words),human sebocytes; [4],suppressed sebocyte proliferation
same,anti-inflammatory action (in words),human sebocytes; human sebocytes,exerted complex anti-inflammatory actions
same,inhibition at 10 µg/mL,[1]; [5],28.4%
same,effect on secretion of IL-1β (in words),[1]; summary of Table 3,attenuates
same,inhibition at 10 µg/mL,[2]; [5],48%
same,effect on secretion of TNFα (in words),[2]; summary of Table 3,attenuates
same,inhibition at 1.25 µg/mL,"P. acnes; Cutibacterium acnes, Sample 1: cannabidiol 1.25 μg/ml, C. asiatica 0, 3 hr",-10.9%
same,inhibition at 2.5 µg/mL,"P. acnes; Cutibacterium acnes, Sample 2: cannabidiol 2.5 μg/ml, C. asiatica 0, 3 hr",5.7%
same,effect on growth of P. acnes (in words),P. acnes; summary of Table 2,neither cannabidiol nor extract of C. asiatica significantly inhibits growth
same,inhibition at 1.25 µg/mL,"[3]; Mus musculus, RAW264.7, Sample 1: cannabidiol 1.25 μg/ml alone, RAW 264.7, LPS 12.5 ng/ml",1.9%
same,inhibition at 2.5 µg/mL,"[3]; Mus musculus, RAW264.7, Sample 2: cannabidiol 2.5 μg/ml alone, RAW 264.7, LPS 12.5 ng/ml",24%
same,effect on secretion of PGE2 (in words),[3]; at a concentration of 2.5 μg/ml,attenuates
